# Source: ChEMBL document CHEMBL1201862, “PubChem BioAssay data set” (2004)
#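 1) Cells in 96-well plates. 2) Compound, 48 h, 5 concentrations. 3) Linear interpolation between surrounding doses. 4) Unreached endpoint = highest concentration. At the GI50, growth is halved.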 The source made the active and inactive calls. No stated cut-off is given here; in the data, active = GI50 up to about 1.1 µM and inactive = higher.
# Key:
# Assay in all cases: DTP human tumour cell line panel, 48 h
# CAKI-1 = system: CAKI-1
# COLO 205 = system: COLO 205
# EKVX = system: EKVX
# HCC 2998 = system: HCC 2998
# HOP-62 = system: HOP-62
# MCF7 = system: MCF7
# MDA-MB-231 = system: MDA-MB-231
# Malme-3M = system: Malme-3M
# NCI-H23 = system: NCI-H23
# OVCAR-4 = system: OVCAR-4
# RPMI-8226 = system: RPMI-8226
# SF-268 = system: SF-268
# SK-MEL-2 = system: SK-MEL-2
# SN12C = system: SN12C
# U-251 = system: U-251
# UO-31 = system: UO-31
# HOP-92 = system: HOP-92
# OVCAR-8 = system: OVCAR-8
# SK-MEL-5 = system: SK-MEL-5
# SR = system: SR
Structure (SMILES),GI50 (CAKI-1),GI50 (COLO 205),GI50 (EKVX),GI50 (HCC 2998),GI50 (HOP-62),GI50 (MCF7),GI50 (MDA-MB-231),GI50 (Malme-3M),GI50 (NCI-H23),GI50 (OVCAR-4),GI50 (RPMI-8226),GI50 (SF-268),GI50 (SK-MEL-2),GI50 (SN12C),GI50 (U-251),GI50 (UO-31),GI50 (HOP-92),GI50 (OVCAR-8),GI50 (SK-MEL-5),GI50 (SR)
Cc1ccccc1N/C(=C(/C(Cl)=C(Cl)Cl)[N+](=O)[O-])n1nnc2ccccc21,20.4 µM (inactive),15.7 µM (inactive),20.5 µM (inactive),18 µM (inactive),16.9 µM (inactive),27.7 µM (inactive),21.3 µM (inactive),14.7 µM (inactive),19.1 µM (inactive),17.5 µM (inactive),24.1 µM (inactive),15.7 µM (inactive),10.8 µM (inactive),17 µM (inactive),16.3 µM (inactive),16.7 µM (inactive),–,–,–,–
O=C(c1ccccc1)C1OC12C(=O)Nc1c(Cl)cc(Cl)cc12 (stereo unspecified),24.8 µM (inactive),19.7 µM (inactive),57.8 µM (inactive),> 92.3 µM (inactive),> 55.2 µM (inactive),–,–,> 74.5 µM (inactive),58.2 µM (inactive),8.2 µM (inactive),47.5 µM (inactive),35.2 µM (inactive),99.1 µM (inactive),27.2 µM (inactive),41.5 µM (inactive),> 57.1 µM (inactive),> 35.9 µM (inactive),17 µM (inactive),> 74.3 µM (inactive),11.6 µM (inactive)
Cc1cc(Cc2cc(C)c(NC(=O)C(=O)C3C(=O)NC(=S)NC3=O)c(C(C)C)c2)cc(C(C)C)c1NC(=O)C(=O)C1C(=O)NC(=S)NC1=O,> 100 µM (inactive),> 100 µM (inactive),> 100 µM (inactive),> 100 µM (inactive),> 100 µM (inactive),–,–,> 100 µM (inactive),> 100 µM (inactive),> 100 µM (inactive),> 100 µM (inactive),> 100 µM (inactive),–,> 100 µM (inactive),> 100 µM (inactive),> 100 µM (inactive),> 100 µM (inactive),> 100 µM (inactive),–,> 100 µM (inactive)
Cc1cccc(-c2cc(=O)c3cc(C)c(C)c(C(=O)O)c3o2)c1,> 100 µM (inactive),> 100 µM (inactive),> 100 µM (inactive),> 100 µM (inactive),> 100 µM (inactive),–,–,> 100 µM (inactive),> 100 µM (inactive),> 100 µM (inactive),> 100 µM (inactive),–,> 100 µM (inactive),> 100 µM (inactive),> 100 µM (inactive),> 100 µM (inactive),> 100 µM (inactive),> 100 µM (inactive),> 100 µM (inactive),> 100 µM (inactive)
Brc1ccc(/N=N/c2ccc3ccccc3n2)cc1,14.1 µM (inactive),> 100 µM (inactive),17.6 µM (inactive),–,–,25.6 µM (inactive),> 10 µM (inactive),12.8 µM (inactive),27.8 µM (inactive),–,18.1 µM (inactive),22.3 µM (inactive),> 100 µM (inactive),40.4 µM (inactive),16.7 µM (inactive),11.2 µM (inactive),33.2 µM (inactive),30.3 µM (inactive),20.7 µM (inactive),–
Cc1cc(C)c(C#N)c(SC(=S)NC(=O)c2ccc(Cl)cc2)n1,> 100 µM (inactive),> 100 µM (inactive),> 100 µM (inactive),> 100 µM (inactive),> 100 µM (inactive),> 100 µM (inactive),> 100 µM (inactive),–,> 100 µM (inactive),> 100 µM (inactive),> 100 µM (inactive),> 100 µM (inactive),> 100 µM (inactive),–,> 100 µM (inactive),> 100 µM (inactive),> 100 µM (inactive),> 100 µM (inactive),> 100 µM (inactive),–
O=C(Cc1ccc(O)c(O)c1)NCc1c[nH]c2ccccc12,31.2 µM (inactive),42 µM (inactive),43.9 µM (inactive),62.2 µM (inactive),17.8 µM (inactive),42 µM (inactive),–,23.1 µM (inactive),39.1 µM (inactive),37 µM (inactive),18.1 µM (inactive),37.8 µM (inactive),> 100 µM (inactive),–,–,42.3 µM (inactive),> 100 µM (inactive),71.6 µM (inactive),43.3 µM (inactive),–
CC(CO)(CBr)COC(=O)c1cc(Br)c(N)c(Br)c1 (stereo unspecified),81.3 µM (inactive),> 100 µM (inactive),37.4 µM (inactive),> 100 µM (inactive),32.4 µM (inactive),–,37.1 µM (inactive),–,79.3 µM (inactive),> 100 µM (inactive),> 100 µM (inactive),29.3 µM (inactive),> 100 µM (inactive),> 100 µM (inactive),54 µM (inactive),2.67 µM (inactive),20.4 µM (inactive),> 100 µM (inactive),> 100 µM (inactive),30.7 µM (inactive)
CC(C)[C@H](O)C(=O)N[C@H]1Cc2ccc3c(c2)[C@]24C5=C(N=C(O5)[C@H](C(C)C)NC1=O)c1nc(Cl)c(o1)-c1c(Cl)[nH]c5cccc(c15)-c1cccc2c1N[C@H]4O3,0.0968 µM (active),–,0.224 µM (active),0.00879 µM (active),2.33 µM (inactive),0.00274 µM (active),0.015 µM (active),0.00643 µM (active),0.00625 µM (active),1.57 µM (inactive),–,0.00513 µM (active),–,–,0.00547 µM (active),0.0457 µM (active),0.00693 µM (active),–,0.0103 µM (active),–
Cc1ccc(S(=O)(=O)Nc2cccc(C)c2C)cc1,–,59.7 µM (inactive),73.5 µM (inactive),> 100 µM (inactive),86.3 µM (inactive),–,–,96.8 µM (inactive),28.1 µM (inactive),19.5 µM (inactive),> 100 µM (inactive),86.7 µM (inactive),–,55.1 µM (inactive),28.4 µM (inactive),30.8 µM (inactive),29.5 µM (inactive),72.4 µM (inactive),31.2 µM (inactive),52.5 µM (inactive)
C=C(C[N+](C)(C)C)N/N=C/c1oc(-c2ccc(OC)c(OC)c2)c(-c2ccc(OC)c(OC)c2)c1[N+](=O)[O-],32.6 µM (inactive),16.4 µM (inactive),> 100 µM (inactive),19.3 µM (inactive),–,–,–,> 10 µM (inactive),21 µM (inactive),18.5 µM (inactive),14.6 µM (inactive),17.9 µM (inactive),16.7 µM (inactive),16.7 µM (inactive),19.5 µM (inactive),18.9 µM (inactive),19.6 µM (inactive),15.8 µM (inactive),16.4 µM (inactive),4.69 µM (inactive)
O=C(Nc1c(Cl)cccc1Cl)c1c(Cl)c(Cl)c(Cl)c(Cl)c1-c1nc2ccccc2[nH]1,62.7 µM (inactive),42.8 µM (inactive),9.48 µM (inactive),38.5 µM (inactive),0.0501 µM (active),34.6 µM (inactive),–,> 100 µM (inactive),76.7 µM (inactive),43.6 µM (inactive),37.2 µM (inactive),63.7 µM (inactive),> 100 µM (inactive),49.5 µM (inactive),–,80.5 µM (inactive),29.9 µM (inactive),33 µM (inactive),29.9 µM (inactive),27.7 µM (inactive)
O=S1(=O)OCCOS(=O)(=O)C1(F)Br,> 100 µM (inactive),> 100 µM (inactive),> 100 µM (inactive),> 100 µM (inactive),> 100 µM (inactive),> 100 µM (inactive),–,> 100 µM (inactive),> 100 µM (inactive),> 100 µM (inactive),> 100 µM (inactive),> 100 µM (inactive),> 100 µM (inactive),> 100 µM (inactive),> 100 µM (inactive),> 100 µM (inactive),–,> 100 µM (inactive),> 100 µM (inactive),> 100 µM (inactive)
N#CN1CC[C@@H]2CC3(CCC2C1)OCCO3 (stereo partly specified),> 100 µM (inactive),> 100 µM (inactive),> 100 µM (inactive),> 100 µM (inactive),> 100 µM (inactive),–,–,> 100 µM (inactive),> 100 µM (inactive),> 100 µM (inactive),> 100 µM (inactive),> 100 µM (inactive),> 100 µM (inactive),> 100 µM (inactive),> 100 µM (inactive),> 100 µM (inactive),> 100 µM (inactive),> 100 µM (inactive),> 100 µM (inactive),> 100 µM (inactive)
CNc1nnc(CCCCCCCCc2nnc(NC)o2)o1,14.8 µM (inactive),> 100 µM (inactive),> 100 µM (inactive),–,35.3 µM (inactive),20.7 µM (inactive),> 100 µM (inactive),–,> 100 µM (inactive),> 100 µM (inactive),–,–,> 100 µM (inactive),> 100 µM (inactive),22.2 µM (inactive),> 100 µM (inactive),> 100 µM (inactive),34.8 µM (inactive),> 100 µM (inactive),–
CCOC(=O)c1[nH]c(CN(C)Cc2[nH]c(C(=O)OCC)c(C)c2C(=O)OCc2ccccc2)c(C(=O)OCc2ccccc2)c1C,2.85 µM (inactive),9.08 µM (inactive),12.9 µM (inactive),14.4 µM (inactive),13 µM (inactive),–,–,40.3 µM (inactive),12.3 µM (inactive),6.24 µM (inactive),–,10.7 µM (inactive),–,6.19 µM (inactive),12.1 µM (inactive),4.09 µM (inactive),2.42 µM (inactive),24 µM (inactive),6.44 µM (inactive),> 100 µM (inactive)
